“And” between values parts separate entries of the source, which are not always exact repeats. Equal values may be shown once. Values belong to the compound of their own block, whether it stands above or below them.
How the values were obtained:
[1] = cited from earlier work; for Decrease of AUC when administered simultaneously with rifampin / Decrease of Cmax when administered simultaneously with rifampin: ref 21 (imitinib), 22 (gefitinib), 23 (erlotinib), 24 (afatinib)
P-gp = biological target: T1, P-gp (Homo sapiens, UniProt P08183); assay: In vitro P-gp interaction study in Caco-2 cells; type: in vitro ADME
T1 construct: endogenous in cells; host or cells: Caco-2
T1 sequence (P08183 whole entry): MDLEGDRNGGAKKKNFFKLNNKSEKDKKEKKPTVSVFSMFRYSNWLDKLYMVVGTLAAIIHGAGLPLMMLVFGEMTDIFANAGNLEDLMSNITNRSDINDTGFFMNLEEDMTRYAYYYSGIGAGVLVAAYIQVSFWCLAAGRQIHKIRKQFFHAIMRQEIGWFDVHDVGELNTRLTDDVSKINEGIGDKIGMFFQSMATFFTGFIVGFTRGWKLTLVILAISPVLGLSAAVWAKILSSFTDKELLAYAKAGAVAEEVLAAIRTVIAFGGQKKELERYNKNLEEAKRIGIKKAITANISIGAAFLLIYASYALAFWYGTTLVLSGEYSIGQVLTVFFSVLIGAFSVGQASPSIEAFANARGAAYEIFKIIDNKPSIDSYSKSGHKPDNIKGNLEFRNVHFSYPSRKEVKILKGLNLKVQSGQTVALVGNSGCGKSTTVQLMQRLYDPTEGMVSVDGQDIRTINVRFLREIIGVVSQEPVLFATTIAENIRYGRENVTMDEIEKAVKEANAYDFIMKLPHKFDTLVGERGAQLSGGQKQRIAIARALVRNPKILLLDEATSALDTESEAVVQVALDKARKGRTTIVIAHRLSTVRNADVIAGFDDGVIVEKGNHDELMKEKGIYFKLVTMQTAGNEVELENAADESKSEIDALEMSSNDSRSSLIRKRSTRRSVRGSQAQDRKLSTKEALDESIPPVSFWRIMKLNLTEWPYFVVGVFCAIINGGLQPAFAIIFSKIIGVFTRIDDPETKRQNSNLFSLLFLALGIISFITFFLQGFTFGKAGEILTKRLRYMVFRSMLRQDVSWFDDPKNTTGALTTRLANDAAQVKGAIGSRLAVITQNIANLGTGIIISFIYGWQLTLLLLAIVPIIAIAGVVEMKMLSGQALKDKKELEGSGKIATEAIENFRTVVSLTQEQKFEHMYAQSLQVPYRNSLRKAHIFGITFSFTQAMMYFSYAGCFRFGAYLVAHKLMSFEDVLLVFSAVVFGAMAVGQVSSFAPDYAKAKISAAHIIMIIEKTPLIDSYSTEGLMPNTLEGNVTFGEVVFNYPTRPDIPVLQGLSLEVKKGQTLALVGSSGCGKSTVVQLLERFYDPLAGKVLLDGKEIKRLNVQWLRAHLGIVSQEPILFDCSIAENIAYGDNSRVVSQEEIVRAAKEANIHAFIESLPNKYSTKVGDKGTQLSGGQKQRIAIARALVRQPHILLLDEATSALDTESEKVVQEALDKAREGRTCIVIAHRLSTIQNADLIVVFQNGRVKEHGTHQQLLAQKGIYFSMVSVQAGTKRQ
From the text: Except as a strong CYP3A inducer, rifampin is also recognized as a substrate and inducer of permeability glycoprotein (P-gp), an important ATP-binding cassette transporter, upon multiple dosing. […] Therefore, the interaction between famitinib and P-gp as well as OATP needs to be considered, to evaluate whether the changes of famitinib exposure caused by the strong CYP3A inducer are affected.

[2] = cited from earlier work
CYP3A4 = system: CYP3A4; set-up: method as in PMID 23126373; details: recombinant human isozymes, microsomal chemical inhibition; cited from earlier work
[3] = Safety and tolerability (treatment emergent adverse events, CTCAE v5.0) in the DDI study; details: for Subjects with treatment-related TEAEs: famitinib alone Days 1–9 (1/21), rifampin alone Days 10–15 (3/21), combination Days 16–23 (4/20)
Description: Safety and tolerability were evaluated by monitoring vital signs, physical examination, laboratory tests, electrocardiogram (ECG) and adverse events (AEs). Vital signs, including body temperature, blood pressure (BP) and heart rate, were measured and ECG were performed during baseline period, before drug administration and at 4, 24, 48, 192 h after famitinib administration. Clinical laboratory tests were conducted at screening, day 9, 15, and prior to discharge. AEs, including all subjective symptoms reported by subjects and objective signs observed by clinical investigators, were collected after dosing throughout the study.
Safety parameters of the safety analysis sets were summarized using descriptive statistics. AEs were graded according to Common Terminology Criteria for Adverse Events (CTCAE, version 5.0) and coded using Medical Dictionary for Regulatory Activities (MedDRA, version 19.0) System Organ Class (SOC) and Preferred Terms (PT).

[4] = Drug-drug interaction study: plasma pharmacokinetics of single oral famitinib 25 mg alone and with steady-state rifampin 600 mg once daily (LC-MS/MS, noncompartmental analysis); details: for CL/F / AUC(0-t) / AUC(0-inf) / Cmax / k el: geometric mean (geometric CV, %); for AUC(0-t): AUC0–t; for AUC(0-inf): AUC0–∞; for Tmax: median (min, max); for k el: λz
Description: The DDI study was an open-label, self-contrast study comprising the following two periods: period 1 (Days 1–9), administration of a single oral dose of famitinib 25 mg alone in the morning of study day 1; period 2 (Days 10–23), repeated administration of oral rifampin 600 mg once daily for 14 days in the morning of days 10–23, and co-administration of a single dose of famitinib 25 mg on Day 16. […] In the two periods, oral doses of famitinib were administered after an overnight fast (at least 10 h) with 240 mL room-temperature water. Subjects were forbidden to drink water within 1 h before and after taking famitinib, and the lunch and dinner were provided at 4 h and 8 h,, respectively, post-drug administration (Day 1, 16). In the second period, subjects received rifampin in the fasting state with 240 mL water and had regular meals 1 h after the dose. Cigarettes, caffeinated drinks and alcoholic products were prohibited during the whole trial period, and when the subjects stayed in the study center (Days 1–4, 10–23), the only food permitted was prepared and provided at predetermined times by the researchers.
Samples were centrifuged within 1 h at 1500xg for 10 min at 4℃ to separate the plasma, which was divided into two aliquots (drug monitoring at least 800ul and backup) and stored at – 80 °Cuntil analysis.
Plasma concentrations of famitinib were analysed using a validated liquid chromatography-tandem mass spectrometry (LC–MS/MS) method [9, 15] at Frontage Laboratories Co., Ltd (Shanghai, China). The calibration curve for famitinib covered ranges of 0.050-100 ng/ml. The low limit of qualification (LLOQ) was 0.050 ng/ml.
Pharmacokinetic (PK) parameters for famitinib in plasma were estimated by noncompartmental analysis using Phoenix WinNonlin (version 7.0, Pharsight Corporation, St Louis, MO, USA). The primary endpoints were the maximum plasma famitinib concentration (Cmax), the area under the plasma concentration–time curve from time 0 to the last measured time point (AUC0–t), and the area under the plasma concentration–time curve from time 0 to infinity (AUC0–∞). The secondary PK parameters included time to Cmax (Tmax) and the elimination half-life (T1/2), the terminal exponential rate constant (λz), the apparent total body clearance (CL/F). Cmax and Tmax were observed directly from the original concentration–time data.
All subjects who received the study drug and for whom at least one PK parameter data was available were included in the PK analysis sets. The safety analysis sets included subjects who received at least one dose of famitinib or rifampin. Statistical analysis was performed using SAS 9.4 (SAS Inc., Cary, NC, USA). […] The measurement data were expressed as mean ± standard deviation (SD), and categorical variables were described by the percentage.

[5] = famitinib 25 mg with rifampin 600 mg vs alone
[6] = famitinib + rifampin period, individual subjects, LLOQ 0.050
[7] = famitinib alone period, individual subjects
[8] = male, human, plasma, po, 25 mg, famitinib 25 mg + rifampin, N = 20
[9] = male, human, plasma, po, 25 mg, famitinib 25 mg alone, N = 21
[10] = healthy volunteers, vs sunitinib alone

Structure (SMILES): CN(C)C/C=C/C(=O)Nc1cc2c(Nc3ccc(F)c(Cl)c3)ncnc2cc1O[C@H]1CCOC1 [afatinib]
Decrease of AUC when administered simultaneously with rifampin [1]: 34%
Decrease of Cmax when administered simultaneously with rifampin [1]: 22%

Structure (SMILES): C#Cc1cccc(Nc2ncnc3cc(OCCOC)c(OCCOC)cc23)c1 [erlotinib]
Decrease of AUC when administered simultaneously with rifampin [1]: 69%
Decrease of Cmax when administered simultaneously with rifampin [1]: 39%

CL/F ([4]; famitinib 25 mg + rifampin, N = 20): 61.4 (16.5) L/h
CL/F ([4]; famitinib 25 mg alone, N = 21): 18.9 (18.0) L/h
Decrease of geometric mean AUC0–t in the presence of rifampin [4, 5]: 69%
Decrease of geometric mean AUC0–∞ in the presence of rifampin [4, 5]: 69%
Decrease of geometric mean Cmax in the presence of rifampin [4, 5]: 48%
Plasma concentration of famitinib, 144h [4, 6]: BLQ<0.050 ng / mL
Plasma concentration of famitinib, 192h [4, 6]: BLQ<0.050 ng / mL
Plasma concentration of famitinib, before dosing [4, 6]: BLQ<0.050 ng / mL
Plasma concentration of famitinib, before dosing ([4]; famitinib alone period, individual subjects, LLOQ 0.050): BLQ<0.050 ng / mL
concentration at 6 h ([4]; human, plasma, oral, 25 mg, Plasma concentration of famitinib, famitinib alone period, individual subjects): 44.3 ng/mL
concentration at 8 h ([4]; human, plasma, oral, 25 mg, Plasma concentration of famitinib, 8h, famitinib alone period, individual subjects): 42.1 ng/mL
concentration at 12 h ([4]; human, plasma, oral, 25 mg, Plasma concentration of famitinib, 12h, famitinib alone period, individual subjects): 22.5 ng/mL
concentration at 24 h ([4]; human, plasma, oral, 25 mg, Plasma concentration of famitinib, 24h, famitinib alone period, individual subjects): 14 ng/mL
concentration at 48 h ([4]; human, plasma, oral, 25 mg, Plasma concentration of famitinib, 48h, famitinib alone period, individual subjects): 7.26 ng/mL
concentration at 6 h ([4]; human, plasma, oral, Plasma concentration of famitinib, famitinib + rifampin period, individual subjects): 22 ng/mL
concentration at 144 h ([4]; human, plasma, oral, Plasma concentration of famitinib, 144h, famitinib + rifampin period, individual subjects, LLOQ 0.050): 0.063 ng/mL
half-life ([4]; male, human, plasma, po, 25 mg): 33.9 h
AUC(0-t) [4, 8]: 405 ng·h/mL
AUC(0-t) [4, 9]: 1300 ng·h/mL
AUC(0-inf) [4, 8]: 407 ng·h/mL
AUC(0-inf) [4, 9]: 1320 ng·h/mL
Cmax ([4]; male, human, plasma, po, 25 mg, famitinib 25 mg + steady-state rifampin 600 mg once daily, N = 20): 20.1 ng/mL
Cmax ([4]; male, human, plasma, po, 25 mg, famitinib 25 mg single oral dose alone, N = 21): 38.7 ng/mL
Tmax [4, 8]: 5.5 h
Tmax [4, 9]: 6 h
k el [4, 8]: 1.08e-05 s⁻¹
k el [4, 9]: 5.83e-06 s⁻¹
Structure (SMILES): CCN(CC)CCN1CCc2[nH]c(/C=C3\C(=O)Nc4ccc(F)cc43)c(C)c2C1=O [famitinib, Famitinib malate]
P-gp substrate, inducer or inhibitor (P-gp): neither a substrate, an inducer or inhibitor
Mean time to maximum concentration (Tmax) ([2]; 25 mg famitinib, healthy subjects): 5.9 ± 3.8 h
Time of peak concentration (Cmax) after a single oral administration ([2]; 4–27 mg famitinib, cancer patients): 3.3 to 5.3 h
Effect of food on the pharmacokinetics [2]: minimal effect
Accumulation ratio (Day28/Day1) of AUC0–24 h ([2]; continuous dosing): 2.53
Accumulation ratio (Day28/Day1) of Cmax ([2]; continuous dosing): 2.15
Elimination via biliary-fecal route ([2]; human): approximately 56.3 % of the administered dose
Pathway most important to metabolic clearance (CYP3A4): CYP3A4-mediated N-desethylation is most important
Subjects with treatment-related TEAEs [3]: 4.8%
Tolerability ([3]; single dose famitinib 25 mg, alone and in combination with multiple doses of rifampin): well tolerated
Subjects reporting treatment emergent adverse events (TEAEs) ([3]; whole study, 8/21 subjects, all grade 1–2): 38.1%
Plasma concentration of famitinib, 1h [4, 7]: 12.172 ng/mL and 10.070 ng/mL and 23.342 ng/mL and 11.725 ng/mL and 7.749 ng/mL and 13.952 ng/mL and 8.453 ng/mL and 16.495 ng/mL and 11.559 ng/mL and 9.713 ng/mL and 14.845 ng/mL and 9.794 ng/mL and 13.641 ng/mL and 7.456 ng/mL and 5.075 ng/mL
Plasma concentration of famitinib, 2h [4, 7]: 19.290 ng/mL and 11.263 ng/mL and 27.171 ng/mL and 17.301 ng/mL and 11.179 ng/mL and 19.862 ng/mL and 16.456 ng/mL and 17.403 ng/mL and 19.212 ng/mL and 16.738 ng/mL and 25.161 ng/mL and 11.223 ng/mL and 13.668 ng/mL and 15.742 ng/mL and 7.198 ng/mL
Plasma concentration of famitinib, 3h [4, 7]: 24.870 ng/mL and 24.032 ng/mL and 35.652 ng/mL and 17.196 ng/mL and 13.891 ng/mL and 21.638 ng/mL and 20.909 ng/mL and 26.523 ng/mL and 20.328 ng/mL and 19.378 ng/mL and 25.658 ng/mL and 13.587 ng/mL and 23.069 ng/mL and 22.375 ng/mL and 13.449 ng/mL
Plasma concentration of famitinib, 4h [4, 7]: 28.028 ng/mL and 28.292 ng/mL and 40.156 ng/mL and 20.043 ng/mL and 16.081 ng/mL and 19.854 ng/mL and 21.159 ng/mL and 24.187 ng/mL and 24.994 ng/mL and 22.750 ng/mL and 36.134 ng/mL and 11.368 ng/mL and 18.316 ng/mL and 23.577 ng/mL and 15.599 ng/mL
Plasma concentration of famitinib, 5h [4, 7]: 34.268 ng/mL and 39.992 ng/mL and 39.262 ng/mL and 34.731 ng/mL and 23.153 ng/mL and 38.641 ng/mL and 37.246 ng/mL and 34.840 ng/mL and 39.863 ng/mL and 36.023 ng/mL and 38.105 ng/mL and 23.878 ng/mL and 27.444 ng/mL and 47.892 ng/mL
Plasma concentration of famitinib, 6h [4, 7]: 43.837 ng/mL and 41.218 ng/mL and 38.122 ng/mL and 30.476 ng/mL and 37.003 ng/mL and 33.261 ng/mL and 32.099 ng/mL and 44.461 ng/mL and 40.451 ng/mL and 44.411 ng/mL and 30.717 ng/mL and 31.790 ng/mL and 38.642 ng/mL
Plasma concentration of famitinib, 8h [4, 7]: 36.756 ng/mL and 37.274 ng/mL and 37.931 ng/mL and 31.453 ng/mL and 34.655 ng/mL and 28.227 ng/mL and 26.193 ng/mL and 38.443 ng/mL and 33.433 ng/mL and 40.722 ng/mL and 30.892 ng/mL and 27.531 ng/mL and 41.552 ng/mL

Structure (SMILES): COc1cc2ncnc(Nc3ccc(F)c(Cl)c3)c2cc1OCCCN1CCOCC1 [gefitinib]
Decrease of AUC when administered simultaneously with rifampin [1]: 83%
Decrease of Cmax when administered simultaneously with rifampin [1]: 65%

Structure (SMILES): Cc1ccc(NC(=O)c2ccc(CN3CCN(C)CC3)cc2)cc1Nc1nccc(-c2cccnc2)n1 [imitinib]
Decrease of AUC when administered simultaneously with rifampin [1]: 74%
Decrease of Cmax when administered simultaneously with rifampin [1]: 54%

Structure (SMILES): CO[C@H]1/C=C/O[C@@]2(C)Oc3c(C)c(O)c4c(O)c(c(/C=N/N5CCN(C)CC5)c(O)c4c3C2=O)NC(=O)/C(C)=C\C=C\[C@H](C)[C@H](O)[C@@H](C)[C@@H](O)[C@@H](C)[C@H](OC(C)=O)[C@@H]1C [rifampin, Rifampicin]
Subjects with treatment-related TEAEs [3]: 14.3%

Structure (SMILES): CCN(CC)CCNC(=O)c1c(C)[nH]c(/C=C2\C(=O)Nc3ccc(F)cc32)c1C [sunitinib]
Fold reduction in AUC on coadministration with rifampin [1, 10]: 4.8 fold
Fold reduction in Cmax on coadministration with rifampin [1, 10]: 2.3 fold

Reference: PMC9556364, “The effect of rifampin on the pharmacokinetics of famitinib in healthy subjects” (Cancer Chemotherapy and Pharmacology, 2022)
